Test results published in the supplement of paper PMC10307832.

Assays:
Assay in all cases: relative viability (nuclei count vs DMSO), 5 days (fraction); higher = more cells survive
[1] = compound: C1CC(C1)(C(=O)O)C(=O)O.[NH2-].[NH2-].[Pt+2] [Carboplatin] + C[C@]1(O)C[C@@H](c2nc(-c3ccc4ccc(-c5ccccc5)nc4c3)c3c(N)nccn32)C1 [Linsitinib] (partner 1 µM)
In short: (§1)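 Lung cancer cell lines in 1536-well plates got either a single drug or a fixed anchor-drug dose together with five library-drug doses (not always all listed) in √10 steps, by pin tool, on the day after seeding. Nuclei were counted after 5 days, and relative viability is the treated-to-vehicle ratio of nuclei counts. Values are medians of duplicate plates.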

[2] = compound: CC[C@H](C)N1C=C(C2=C(C=C(C=C21)C3=CN=C(C=C3)N4CCNCC4)C(=O)NCC5=C(C=C(NC5=O)C)C)C [GSK126] + Nc1ncn([C@H]2C[C@H](O)[C@@H](CO)O2)c(=O)n1 [Decitabine] (partner 2 µM)
In short: as §1

[3] = compound: CC[C@H](C)N1C=C(C2=C(C=C(C=C21)C3=CN=C(C=C3)N4CCNCC4)C(=O)NCC5=C(C=C(NC5=O)C)C)C [GSK126] + COc1cc2c(Oc3ccc(NC(=O)C4(C(=O)Nc5ccc(F)cc5)CC4)cc3F)ccnc2cc1OCCCN1CCOCC1 [Foretinib] (partner 0.25 µM)
In short: as §1

[4] = compound: NS(=O)(=O)OC[C@@H]1C[C@@H](n2ccc3c(N[C@H]4CCc5ccccc54)ncnc32)C[C@@H]1O [MLN4924] + Cc1nc(NC(=O)N2CCC[C@H]2C(N)=O)sc1-c1ccnc(C(C)(C)C(F)(F)F)c1 [Alpelisib] (partner 2 µM)
In short: as §1

| Cell Line | relative viability ([1]; first compound 0.08 µM) | relative viability ([1]; first compound 0.253 µM) | relative viability ([1]; first compound 0.8 µM) | relative viability ([1]; first compound 2.53 µM) | relative viability ([1]; first compound 8 µM) | relative viability ([2]; first compound 0.08 µM) | relative viability ([2]; first compound 0.253 µM) | relative viability ([2]; first compound 0.8 µM) | relative viability ([2]; first compound 2.53 µM) | relative viability ([2]; first compound 8 µM) | relative viability ([3]; first compound 0.08 µM) | relative viability ([3]; first compound 0.253 µM) | relative viability ([3]; first compound 0.8 µM) | relative viability ([3]; first compound 2.53 µM) | relative viability ([3]; first compound 8 µM) | relative viability ([4]; first compound 0.04 µM) | relative viability ([4]; first compound 0.1265 µM) | relative viability ([4]; first compound 0.4 µM) | relative viability ([4]; first compound 1.265 µM) | relative viability ([4]; first compound 4 µM) |
| --- | --- | --- | --- | --- | --- | --- | --- | --- | --- | --- | --- | --- | --- | --- | --- | --- | --- | --- | --- | --- |
| NCI-H1915 | 1.07 | 1.11 | 1.04 | 1.01 | 0.723 | 0.277 | 0.262 | 0.262 | 0.256 | 0.252 | 1.22 | 1.16 | 1.09 | 1.08 | 1.2 | 1.03 | 0.865 | 0.892 | 0.216 | 0.17 |
| NCI-H650 | 1.15 | 0.859 | 0.982 | 0.848 | 0.503 | 0.33 | 0.293 | 0.311 | 0.299 | 0.322 | 1.15 | 1.02 | 0.954 | 1.02 | 1.03 | 1.06 | 0.513 | 0.339 | 0.204 | 0.232 |
| SW 1573 | 0.757 | 0.621 | 0.642 | 0.738 | 0.557 | 0.648 | 0.463 | 0.431 | 0.573 | 0.517 | 1.09 | 1.04 | 0.929 | 1.05 | 0.949 | 1.01 | 0.974 | 0.957 | 0.155 | 0.0628 |
| NCI-H460 | 0.907 | 0.803 | 0.739 | 0.445 | 0.184 | 0.605 | 0.495 | 0.468 | 0.37 | 0.446 | 1.04 | 0.998 | 0.977 | 0.997 | 1.06 | 0.677 | 0.688 | 0.662 | 0.0819 | 0.0199 |
| COR-L23 | 0.976 | 0.91 | 0.754 | 0.529 | 0.297 | 0.467 | 0.373 | 0.389 | 0.448 | 0.433 | 1.06 | 0.931 | 0.921 | 0.932 | 1.01 | 0.722 | 0.689 | 0.561 | 0.159 | 0.116 |
| NCI-H2009 | 1.21 | 1.14 | 1.09 | 1.09 | 0.807 | 0.372 | 0.334 | 0.45 | 0.403 | 0.381 | 1.25 | 1.25 | 1.15 | 1.18 | 1.35 | 0.987 | 0.791 | 0.299 | 0.151 | 0.114 |
| PC-3 [JPC-3] | 0.953 | 0.942 | 0.888 | 0.919 | 0.931 | 0.831 | 0.74 | 0.826 | 0.86 | 0.881 | 1.02 | 1.02 | 1.02 | 1.01 | 0.997 | 0.996 | 0.963 | 0.896 | 0.327 | 0.266 |
| NCI-H2085 | 0.943 | 0.967 | 0.845 | 0.858 | 0.764 | 0.551 | 0.511 | 0.588 | 0.615 | 0.518 | 1.09 | 1.04 | 0.855 | 1.12 | 1.24 | 0.921 | 1.01 | 0.94 | 0.743 | 0.416 |
